Legend:
G8-1 = test: Northern analysis of mRNA accumulation in cultured tobacco cells; format: cell-based; conditions: SA 0.1 μM to 2 mM
[1] = test system: early SA-induced genes identified by differential display; test: Northern analysis of differential display genes in cultured tobacco cells; format: cell-based
Experimental: FIG. 1. […] Northern analysis of genes identified by differential display. Gel-purified DNA fragments produced by ddPCR were either used directly for random-primed labeling and probing of Northern filters (e.g. C7-1, C6-1, and G9-2) or first subcloned and released by restriction digest. Each lane contains 1 μg of poly(A) mRNA from cultured tobacco cells treated with (1) H2O, 4 hr; (2) 200 μM SA, 4 hr; (3) 71 μM CHX, 5 hr; (4) 71 μM CHX, 5 hr plus 200 μM SA after 1 hr (4 hr total); (5) 20 μM SA, 2 hr; (7) 200 μM SA, 8 hr.
FIG. 4. Specificity of induction among SA analogs and other signalling compounds. Northern analysis of representative differential display genes following treatment of tobacco cells with 100 μM or 1 mM (left and right side of triangles, respectively) of the following chemicals for 2-2.5 hr: salicylic acid (SA, lanes 4 and 5), acetylSA (ASA, lanes 6 and 7), benzoic acid (BA, lanes 8 and 9), 4-hydroxybenzoic (4HBA, lanes 10 and 11), thiamine (thia, lanes 12 and 13), methyljasmonate (MJ, lanes 14 and 15), abscisic acid (ABA, lanes 16 and 17), or 2,4-dichlorophenoxyacetic acid (2,4-D, lanes 18 and 19). Control treatments are H2O (H, lane 1), 1% ethanol (E, solvent concentration in MJ treatments, lane 2), or 1% DMSO (D, solvent concentration in 2,4D treatments, lane 3). Blots were hybridized with ddPCR fragments indicated at right or with the β-ATPase geneas a loading control probe. Autoradiogram exposure times were optimized for each gene. […] Labels on left indicate response class.
(§1) Differential display technology (Liang, P. and Pardee, A. B., Science 257: 967-971, 1992) was used to identify genes activated in the presence of SA, CHX and both. Therefore the absence or presence of SA, induction at 3 timepoints of SA-treatment, 2 different concentrations of SA and the effect of addition of CHX were measured. Seven treatments in total were performed. Treatment of tobacco BY-2 suspension cells and leaves and differential display PCR reactions were performed as described (Horvath and Chua (1996), Plant Mol. Biol. 31, 1061-1072).
The specificity for induction by SA was tested by treating tobacco cells with a range of SA analogs and plant signalling compounds at 0.1 and 1 mM for approximately 2.5 h. […] Several genes, including those for proteinase inhibitors and lipoxygenase (Hildmann, T. et al., Plant Cell 4: 1157-1170, 1992; Melan, M. A. et al., Plant Physiol. 101: 441-450, 1993; Xu, D. et al., Plant Mol. Biol. 22: 573-588, 1993) are known to be under dual regulation by MJ and ABA.

G1-1/EGT = conditions: SA; previously shown (Horvath and Chua, 1996); cited from earlier work
C14-1b = test: Northern analysis of mRNA accumulation in cultured tobacco cells; format: cell-based
Experimental: (§2) FIG. 2. Time course of SA-induced gene expression. Northern analysis of representative differential display genes following treatment of cultured tobacco cells with SA for the indicated time (in hours, except lanes 2-4, which refer to 10, 20, and 30 min.). Twenty micrograms of total RNA was loaded per lane. Blots were hybridized with ddPCR fragments indicated at right or with the β-ATPase gene as a loading control probe. Autoradiogram exposure times were optimized for each gene. The signal for C18-1 was enhanced by using the full length cDNA as probe. Labels on left indicate response class.
(§3) FIG. 4. Specificity of induction among SA analogs and other signalling compounds. Northern analysis of representative differential display genes following treatment of tobacco cells with 100 μM or 1 mM (left and right side of triangles, respectively) of the following chemicals for 2-2.5 hr: salicylic acid (SA, lanes 4 and 5), acetylSA (ASA, lanes 6 and 7), benzoic acid (BA, lanes 8 and 9), 4-hydroxybenzoic (4HBA, lanes 10 and 11), thiamine (thia, lanes 12 and 13), methyljasmonate (MJ, lanes 14 and 15), abscisic acid (ABA, lanes 16 and 17), or 2,4-dichlorophenoxyacetic acid (2,4-D, lanes 18 and 19). Control treatments are H2O (H, lane 1), 1% ethanol (E, solvent concentration in MJ treatments, lane 2), or 1% DMSO (D, solvent concentration in 2,4D treatments, lane 3). Blots were hybridized with ddPCR fragments indicated at right or with the β-ATPase geneas a loading control probe. Autoradiogram exposure times were optimized for each gene. The signal for C18-1 was enhanced by using the full length cDNA as probe. Labels on left indicate response class.
as §1
(§4) The specificity for induction by SA was tested by treating tobacco cells with a range of SA analogs and plant signalling compounds at 0.1 and 1 mM for approximately 2.5 h. […] Among the SA-analogs, acetyl-SA (ASA, aspirin), benzoic acid (BA) and 4-hydroxybenzoic acid (4HBA), responses generally reflected the ability of the analog to substitute for SA in other cellular responses (Yalpani, N. et al., Plant Cell 3: 809-818, 1991, Yang, Y. and Klessig, D. F., Proc. Natl. Acad. Sci. 93, 14972-14977, 1996). […] Several genes, including those for proteinase inhibitors and lipoxygenase (Hildmann, T. et al., Plant Cell 4: 1157-1170, 1992; Melan, M. A. et al., Plant Physiol. 101: 441-450, 1993; Xu, D. et al., Plant Mol. Biol. 22: 573-588, 1993) are known to be under dual regulation by MJ and ABA. A similar mode of regulation may be in effect with C14-1b. the auxin 2,4-D induced several genes including C18-1/EREBP1 and C6-2.

C6-2 = test: as above; format: cell-based
Experimental: as §2, §3, §1, §4

[2] = 0.1 and 1 mM, approximately 2.5 h

Q: With `O=C(O)c1ccccc1O` [SA, salicylic acid] as the compound, how does the EC50 (G8-1; Nicotiana tabacum, tobacco cells, 2-2.5 hr, read-out: concentration of SA required for half of the maximum level of G8-1 expression) read?
A: Its EC50 is roughly 1 µM.

Q: And the “response of G8-1 expression to SA concentration range” value (G8-1)?
A: Its value is “activated over a large SA concentration range”.

Q: And the “induction of most of the genes at 20 μM SA” value ([1]; 20 μM SA)?
A: Its value is “little or none”.

Q: And the “induction of most of the genes at 200 μM SA” value ([1]; 200 μM SA)?
A: Its value is “clear induction”.

Q: And the “time at which G1-1/EGT is induced” value (G1-1/EGT)?
A: Its value is 20 to 30 min.

Q: What about the “time of peak G1-1/EGT” value (G1-1/EGT) of the same compound?
A: The value was 3 h.

Q: And the “induction of C14-1b” value (C14-1b; [2])?
A: The value was “did not reveal response”.

Q: And the “time at which C14-1b induction is apparent” value (C14-1b; SA time course)?
A: Its value is 2 to 2.5 h.

Q: And the “time of peak C14-1b expression” value (C14-1b; SA time course)?
A: The value was 5 h.

Q: What about the “C6-2 induction at 0.1 mM versus 1 mM” value (C6-2; [2]) of the same compound?
A: Its value is “greater induction at 1mM”.

Q: What about the “time at which C6-2 induction is apparent” value (C6-2; SA time course) of the same compound?
A: The value was no more than 10 min.

Q: And the “time of peak C6-2 mRNA” value (C6-2; SA time course)?
A: The value was “approximately 1.5 h”.

Q: And the “time of reduction of C6-2 mRNA to background levels” value (C6-2; SA time course)?
A: The value was no more than 4 h.

Reference: patent publication US20020039780A1, “Salicyclic acid inducible genes and promoters” (priority 1998, published 2002)
